Results as given in PubChem BioAssay AID1963440 (Molecular Pharmacology Branch, DTP, NCI, 2024).
pIC50: −log10 of the molar value.

System: NCI-H1417 complex spheroids, growth % test/control
Test: Anticancer human tumor NCI-H1417 cell line growth inhibition [Asc];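 also: spheroids exposed to compounds for 7 days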;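 as to viability, T/C: 100% = DMSO vehicle control wells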
Conditions: for pIC50: curve of first compound; for viability, T/C: stronger effect = lower value
In short: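 Complex solid-tumor spheroids incorporating human endothelial and mesenchymal stem cells received single agents or combinations over half-log dilution ranges anchored to clinical Cmax.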

Cc1nc(N2CCC3(CC2)COC(C)C3N)c(CO)nc1Sc1ccnc(N)c1Cl (centres undefined) + CCN1C(C(=O)NC23CCC(C(=O)O)(CC2)CC3)C(c2cccc(Cl)c2F)C2(C(=O)Nc3cc(Cl)ccc32)C12CCCCC2
pIC50 (second compound 0.03 µM): < 5.52 | pIC50 (second compound 0.0949 µM): < 5.52 | pIC50 (second compound 0.3 µM): < 5.52 | pIC50 (second compound 0.949 µM): < 5.52 | pIC50 (second compound 3 µM): < 5.52 | viability, T/C (second compound 0.03 µM, first compound 0.00949 µM): 106% | viability, T/C (second compound 0.03 µM, first compound 0.03 µM): 104% | viability, T/C (second compound 0.03 µM, first compound 0.0949 µM): 92.1% | viability, T/C (second compound 0.03 µM, first compound 0.3 µM): 86.1% | viability, T/C (second compound 0.03 µM, first compound 0.949 µM): 90.4% | viability, T/C (second compound 0.03 µM, first compound 3 µM): 82.6% | viability, T/C (second compound 0.0949 µM, first compound 0.00949 µM): 92.8% | viability, T/C (second compound 0.0949 µM, first compound 0.03 µM): 89.5% | viability, T/C (second compound 0.0949 µM, first compound 0.0949 µM): 91.4% | viability, T/C (second compound 0.0949 µM, first compound 0.3 µM): 82.1% | viability, T/C (second compound 0.0949 µM, first compound 0.949 µM): 87.8% | viability, T/C (second compound 0.0949 µM, first compound 3 µM): 79.4% | viability, T/C (second compound 0.3 µM, first compound 0.00949 µM): 98.6% | viability, T/C (second compound 0.3 µM, first compound 0.03 µM): 104% | viability, T/C (second compound 0.3 µM, first compound 0.0949 µM): 106% | viability, T/C (second compound 0.3 µM, first compound 0.3 µM): 82.7% | viability, T/C (second compound 0.3 µM, first compound 0.949 µM): 92.9% | viability, T/C (second compound 0.3 µM, first compound 3 µM): 82.5% | viability, T/C (second compound 0.949 µM, first compound 0.00949 µM): 103% | viability, T/C (second compound 0.949 µM, first compound 0.03 µM): 93.9% | viability, T/C (second compound 0.949 µM, first compound 0.0949 µM): 97.4% | viability, T/C (second compound 0.949 µM, first compound 0.3 µM): 78.3% | viability, T/C (second compound 0.949 µM, first compound 0.949 µM): 73.3% | viability, T/C (second compound 0.949 µM, first compound 3 µM): 84.4% | viability, T/C (second compound 3 µM, first compound 0.00949 µM): 88.9% | viability, T/C (second compound 3 µM, first compound 0.03 µM): 95% | viability, T/C (second compound 3 µM, first compound 0.0949 µM): 96.5% | viability, T/C (second compound 3 µM, first compound 0.3 µM): 99.7% | viability, T/C (second compound 3 µM, first compound 0.949 µM): 79.9% | viability, T/C (second compound 3 µM, first compound 3 µM): 80.3%

C#Cc1c(F)ccc2cc(O)cc(-c3ncc4c(N5CC6CCC(C5)N6)nc(OCC56CCCN5CC(F)C6)nc4c3F)c12 (centres undefined) + CNC(C)C(=O)NC1CN(S(=O)(=O)c2cccc(S(=O)(=O)N3CCC4CCC(C(=O)NC(c5ccccc5)c5ccccc5)N4C(=O)C(NC(=O)C(C)NC)C3)c2)CCC2CCC(C(=O)NC(c3ccccc3)c3ccccc3)N2C1=O
pIC50 (second compound 0.00316 µM): < 5.00 | pIC50 (second compound 0.01 µM): < 5.00 | pIC50 (second compound 0.0316 µM): < 5.00 | pIC50 (second compound 0.1 µM): < 5.00 | pIC50 (second compound 0.316 µM): < 5.00 | pIC50 (second compound 1 µM): < 5.00 | viability, T/C (second compound 0.00316 µM, first compound 0.0316 µM): 96.1% | viability, T/C (second compound 0.00316 µM, first compound 0.1 µM): 87.6% | viability, T/C (second compound 0.00316 µM, first compound 0.316 µM): 99.3% | viability, T/C (second compound 0.00316 µM, first compound 1 µM): 95.7% | viability, T/C (second compound 0.00316 µM, first compound 3.16 µM): 81.7% | viability, T/C (second compound 0.00316 µM, first compound 10 µM): 65% | viability, T/C (second compound 0.01 µM, first compound 0.0316 µM): 98% | viability, T/C (second compound 0.01 µM, first compound 0.1 µM): 90% | viability, T/C (second compound 0.01 µM, first compound 0.316 µM): 82.2% | viability, T/C (second compound 0.01 µM, first compound 1 µM): 98.1% | viability, T/C (second compound 0.01 µM, first compound 3.16 µM): 93.2% | viability, T/C (second compound 0.01 µM, first compound 10 µM): 66.4% | viability, T/C (second compound 0.0316 µM, first compound 0.0316 µM): 101% | viability, T/C (second compound 0.0316 µM, first compound 0.1 µM): 90.6% | viability, T/C (second compound 0.0316 µM, first compound 0.316 µM): 91.1% | viability, T/C (second compound 0.0316 µM, first compound 1 µM): 98.2% | viability, T/C (second compound 0.0316 µM, first compound 3.16 µM): 88.9% | viability, T/C (second compound 0.0316 µM, first compound 10 µM): 69.3% | viability, T/C (second compound 0.1 µM, first compound 0.0316 µM): 89.5% | viability, T/C (second compound 0.1 µM, first compound 0.1 µM): 91.5% | viability, T/C (second compound 0.1 µM, first compound 0.316 µM): 86% | viability, T/C (second compound 0.1 µM, first compound 1 µM): 97.6% | viability, T/C (second compound 0.1 µM, first compound 3.16 µM): 91.2% | viability, T/C (second compound 0.1 µM, first compound 10 µM): 69.8% | viability, T/C (second compound 0.316 µM, first compound 0.0316 µM): 82.3% | viability, T/C (second compound 0.316 µM, first compound 0.1 µM): 80.9% | viability, T/C (second compound 0.316 µM, first compound 0.316 µM): 87.1% | viability, T/C (second compound 0.316 µM, first compound 1 µM): 86.7% | viability, T/C (second compound 0.316 µM, first compound 3.16 µM): 91.2% | viability, T/C (second compound 0.316 µM, first compound 10 µM): 64.6% | viability, T/C (second compound 1 µM, first compound 0.0316 µM): 97.5% | viability, T/C (second compound 1 µM, first compound 0.1 µM): 80.9% | viability, T/C (second compound 1 µM, first compound 0.316 µM): 89.6% | viability, T/C (second compound 1 µM, first compound 1 µM): 84.3% | viability, T/C (second compound 1 µM, first compound 3.16 µM): 86.7% | viability, T/C (second compound 1 µM, first compound 10 µM): 66.8%

Cc1nc(N2CCC3(CC2)COC(C)C3N)c(CO)nc1Sc1ccnc(N)c1Cl (centres undefined) + CNC(C)C(=O)NC1CN(S(=O)(=O)c2cccc(S(=O)(=O)N3CCC4CCC(C(=O)NC(c5ccccc5)c5ccccc5)N4C(=O)C(NC(=O)C(C)NC)C3)c2)CCC2CCC(C(=O)NC(c3ccccc3)c3ccccc3)N2C1=O
pIC50 (second compound 0.00316 µM): < 5.52 | pIC50 (second compound 0.01 µM): < 5.52 | pIC50 (second compound 0.0316 µM): < 5.52 | pIC50 (second compound 0.1 µM): < 5.52 | pIC50 (second compound 0.316 µM): < 5.52 | pIC50 (second compound 1 µM): < 5.52 | viability, T/C (second compound 0.00316 µM, first compound 0.00949 µM): 99.4% | viability, T/C (second compound 0.00316 µM, first compound 0.03 µM): 89% | viability, T/C (second compound 0.00316 µM, first compound 0.0949 µM): 85.8% | viability, T/C (second compound 0.00316 µM, first compound 0.3 µM): 81.9% | viability, T/C (second compound 0.00316 µM, first compound 0.949 µM): 93.4% | viability, T/C (second compound 0.00316 µM, first compound 3 µM): 92.6% | viability, T/C (second compound 0.01 µM, first compound 0.00949 µM): 91.9% | viability, T/C (second compound 0.01 µM, first compound 0.03 µM): 100% | viability, T/C (second compound 0.01 µM, first compound 0.0949 µM): 89.3% | viability, T/C (second compound 0.01 µM, first compound 0.3 µM): 87.8% | viability, T/C (second compound 0.01 µM, first compound 0.949 µM): 96.9% | viability, T/C (second compound 0.01 µM, first compound 3 µM): 84.1% | viability, T/C (second compound 0.0316 µM, first compound 0.00949 µM): 93.9% | viability, T/C (second compound 0.0316 µM, first compound 0.03 µM): 92.2% | viability, T/C (second compound 0.0316 µM, first compound 0.0949 µM): 101% | viability, T/C (second compound 0.0316 µM, first compound 0.3 µM): 83.6% | viability, T/C (second compound 0.0316 µM, first compound 0.949 µM): 98.2% | viability, T/C (second compound 0.0316 µM, first compound 3 µM): 79% | viability, T/C (second compound 0.1 µM, first compound 0.00949 µM): 87.5% | viability, T/C (second compound 0.1 µM, first compound 0.03 µM): 86.6% | viability, T/C (second compound 0.1 µM, first compound 0.0949 µM): 91.7% | viability, T/C (second compound 0.1 µM, first compound 0.3 µM): 86.2% | viability, T/C (second compound 0.1 µM, first compound 0.949 µM): 86.9% | viability, T/C (second compound 0.1 µM, first compound 3 µM): 86.2% | viability, T/C (second compound 0.316 µM, first compound 0.00949 µM): 82.8% | viability, T/C (second compound 0.316 µM, first compound 0.03 µM): 90.2% | viability, T/C (second compound 0.316 µM, first compound 0.0949 µM): 88% | viability, T/C (second compound 0.316 µM, first compound 0.3 µM): 88.8% | viability, T/C (second compound 0.316 µM, first compound 0.949 µM): 84.1% | viability, T/C (second compound 0.316 µM, first compound 3 µM): 94.2% | viability, T/C (second compound 1 µM, first compound 0.00949 µM): 78.1% | viability, T/C (second compound 1 µM, first compound 0.03 µM): 98.6% | viability, T/C (second compound 1 µM, first compound 0.0949 µM): 90.2% | viability, T/C (second compound 1 µM, first compound 0.3 µM): 89.8% | viability, T/C (second compound 1 µM, first compound 0.949 µM): 83.7% | viability, T/C (second compound 1 µM, first compound 3 µM): 87.7%
